Source: US20070248680A1, “Particles for Inactivating Toxins” (Board of Regents, The University of Texas System, priority 2005, published 2007)
“Also recorded” adds a separate entry of the source.

Legend:
[1] = Persistence of FITC-BSA tagged particles in blood after intravenous introduction (fluorometry); assay type: in vivo; settings: Balb/C mice, about 5.0 micrometer particles
Description: One feature of the present invention is that a particle preparation of the present invention is capable of remaining in the host for a length of time, longer than proteins, antibodies, vaccines, or antimicrobials are known to last in a mammalian host. […] Particle were tagged by conjugating with FITC-labeled bovine serum albumin (BSA) protein. […] The amount of BSA present in each sample was assessed by fluorometry. The tagged particles in FIG. 5A were FITC-BSA conjugated to NIPA particles of about 5.0 micrometers (typical diameter). […] In addition, greater than 20% of the BSA-NIPA particles were still present in the blood after two weeks.

[2] = test system: BSA antibodies; test: Protein adsorption from BSA antisera onto particles, SDS-PAGE of eluted proteins; assay type: binding, Balb/C mice; settings: serum of BSA-immunized mice, about 2 hours incubation, about 5 micrometer particles
Description: Another feature is that a tagged particle of the present invention may specifically recognize proteins or other host components of interest and as desired. For example, tagged particles were made to recover or eliminate BSA antibodies from immunized animals. First, Balb/C mice were immunized with bovine serum albumin (BSA) protein for four weeks to trigger BSA antibody production. Two weeks later, mice were sacrificed and their serum was recovered for analyses. […] After incubation for at least about 2 hours, particles were recovered by centrifugation. From a portion of each sample of recovered particles, proteins were eluted. Particles and eluted proteins were analyzed by SDS-PAGE gel electrophoresis to identify proteins that had adsorbed to the particles.
In FIG. 6, lane 1 is diluted mouse sera in PBS at concentration of 1 mg/mL; lanes 2, 5 and 7 depict proteins eluted from NIPA microparticles preincubated with antisera from three different mice; lanes 3, 4 and 6 depict proteins eluted from NIPA-BSA microparticles preincubated with antisera from three different mice. Lanes 2 and 3 are samples from a first mouse, lanes 4 and 5 are samples from a second mouse, and lanes 6 and 7 are samples from a third mouse.
In another example depicting the specific recognition of tagged particles, a similar immunization strategy was used. […] Eluted proteins were analyzed using SDS-PAGE gel electrophoresis. […]

[3] = test system: BSA antibody; test: Removal of free BSA antibody from serum of BSA-immunized mice (ELISA); assay type: in vivo, Balb/C mice; settings: for time to removal of circulating BSA antibodies from serum / effect on free and circulating BSA antibody in serum: tail vein injection; for time to removal of circulating BSA antibodies from serum: FIG. 8B; for effect on free and circulating BSA antibody in serum: NIPA about 5 micrometers, PLLA about 10 micrometers, HA about 250 nanometers
Excerpt: Another feature of the present invention is that selective tagging of particles of the present invention provides for the removal of select and specific unwanted products or toxins (e.g., unwanted proteins or antibodies) from a host. […] Following injection, mice (at least five mice per group) were sacrificed beginning on day one and continued to day 21. Serum samples from each mouse were recovered via retro-orbital blood collection. Sera was then used to measure the amount of free BSA antibody in the blood by standard enzyme-linked immuno-sorbent assay. FIGS. 8A and 8B are representative examples of the efficacy of specifically tagged particles, in which tagged particles are capable of removing a specific antibody present in serum.

[4] = test system: collagen antibody; test: Removal of collagen antibodies from circulation of collagen-immunized mice; assay type: in vivo, Balb/C mice; settings: week 7, one week after intravenous injection of about 2.0 mg particles/0.5 mL; about 100 nanometer NIPA
Description: In still another example, Balb/C mice were immunized with bovine skin collagen following a standard immunization procedure as is known to one of ordinary skill in the art. At one week following immunization, mice began to produce antibodies against collagen. At the end of week 6 as depicted by the arrow in FIGS. 9A and 9B, mice were injected intravenously (via the tail vein) with particles tagged with and without bovine Type I collagen. Intravenous doses were about 2.0 mg particles/0.5 mL. FIGS. 9A and 9B are representative examples showing the in vivo efficacy of specifically tagged particles and their ability to remove a particular unwanted antibodies from circulation after allowing the unwanted antibody concentration to accumulate for six weeks. […] Histologic analyses of tissue samples collected from some representative animals, including samples from the kidneys, lung, liver, brain, intestines, heart and spleen, were examined for particles. […] These animals were also able to degrade the particle preparation (predominantly in the liver) and eliminate by-products of the preparation via hydrolysis (data not shown).
In FIG. 9B, the conditions as described for FIG. 9A were repeated using particle preparations tagged comprising HPC particles of 1-5 micrometers (typical diameter) conjugated with collagen (HPC-collagen) or untagged particles (HPC) injected into mice.

Substance: BSA-HPC: HPC particles (approximately 5.0 micrometers) conjugated to BSA
- particles still present in the blood after two weeks [1]: greater than 20%

Substance: BSA-NIPA: FITC-BSA conjugated to NIPA particles of about 5.0 micrometers typical diameter
- time remained in the circulation ([1]; FIG. 5A): at least 2 weeks
- particles still present in the blood after two weeks [1]: greater than 20%
- proteins adsorbed to or recognized by particles ([2]; listed as BSA-NIPA microparticles): recognized a number of proteins, especially those representing immunoglobulin G
- proteins adsorbed to or recognized by particles ([2]; listed as NIPA-BSA microparticles): recognized more proteins
- free BSA antibodies in the serum ([3]; tail vein injection at 6 weeks, about 5 micrometer particles, FIG. 8A): < 5%
- time to removal of circulating BSA antibodies from serum [3]: less than a week
- effect on free and circulating BSA antibody in serum [3]: virtually complete by day 2

Substance: HA-BSA: HA nanoparticles (approximately 250 nanometers) tagged with BSA
- time to removal of circulating BSA antibodies from serum [3]: less than a week

Substance: NP-Collagen: NIPA particles (approximately 100 nanometers) conjugated with bovine Type I collagen
- reduction of collagen antibody concentration [4]: greater than 75%

Substance: PLLA-BSA: PLLA microparticles (approximately 10 micrometer) tagged with BSA
- time to removal of circulating BSA antibodies from serum [3]: less than a week

Substance: bovine serum albumin [BSA, reference compound]
- effect on free and circulating BSA antibody in serum [3]: did little to effect; also recorded: none of the untagged particles (HA, NIPA, PLLA) or BSA alone (BSA) when injected into a host were able to significantly effect
